Biological target: T1, rSlo2 channels (Rattus norvegicus, UniProt Q9Z258)
T1 construct: expressed in transfected cells; host or cells: Xenopus laevis oocytes injected with capped cRNA (pOX vector); inside-out patches
T1 sequence (Q9Z258 1-1239): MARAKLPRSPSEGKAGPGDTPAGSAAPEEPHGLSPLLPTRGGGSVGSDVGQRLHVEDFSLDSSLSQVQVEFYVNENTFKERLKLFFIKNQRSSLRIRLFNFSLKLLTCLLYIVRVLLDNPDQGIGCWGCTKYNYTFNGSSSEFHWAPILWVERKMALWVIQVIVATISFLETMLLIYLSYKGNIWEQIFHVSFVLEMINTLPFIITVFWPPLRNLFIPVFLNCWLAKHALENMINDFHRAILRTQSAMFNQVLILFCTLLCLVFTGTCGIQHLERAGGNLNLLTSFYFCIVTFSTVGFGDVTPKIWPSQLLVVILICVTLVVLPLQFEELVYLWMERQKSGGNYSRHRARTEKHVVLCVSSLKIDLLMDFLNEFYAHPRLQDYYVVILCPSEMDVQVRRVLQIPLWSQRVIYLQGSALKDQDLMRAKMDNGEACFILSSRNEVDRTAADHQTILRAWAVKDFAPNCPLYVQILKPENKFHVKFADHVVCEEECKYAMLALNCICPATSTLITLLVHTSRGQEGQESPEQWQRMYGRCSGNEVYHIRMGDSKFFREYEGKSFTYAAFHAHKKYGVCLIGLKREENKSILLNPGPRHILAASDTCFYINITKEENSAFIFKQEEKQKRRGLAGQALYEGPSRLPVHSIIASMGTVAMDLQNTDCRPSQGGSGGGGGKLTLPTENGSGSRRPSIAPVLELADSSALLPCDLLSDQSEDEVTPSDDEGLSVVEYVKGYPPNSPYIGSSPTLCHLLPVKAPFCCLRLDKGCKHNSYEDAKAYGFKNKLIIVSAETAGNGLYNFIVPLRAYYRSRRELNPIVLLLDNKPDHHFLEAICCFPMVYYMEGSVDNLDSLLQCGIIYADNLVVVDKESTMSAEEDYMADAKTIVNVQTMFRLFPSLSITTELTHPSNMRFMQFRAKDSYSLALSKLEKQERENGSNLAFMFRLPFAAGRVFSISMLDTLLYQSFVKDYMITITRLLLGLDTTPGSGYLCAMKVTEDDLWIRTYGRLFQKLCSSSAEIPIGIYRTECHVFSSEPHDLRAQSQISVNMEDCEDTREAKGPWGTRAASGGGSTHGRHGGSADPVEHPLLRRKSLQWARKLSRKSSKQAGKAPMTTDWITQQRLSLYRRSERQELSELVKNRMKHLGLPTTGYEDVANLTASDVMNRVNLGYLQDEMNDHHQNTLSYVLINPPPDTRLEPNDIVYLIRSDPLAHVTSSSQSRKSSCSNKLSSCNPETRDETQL
Test: Patch clamp of inside-out patches from Xenopus oocytes injected with rSlo2 cRNA
Format: cell-based
Protocol: FIG. 2a depicts current traces from an inside-out macropatch (2-3 MΩ electrode prior to seal formation) in the presence of 50 mM [Na+], FIG. 2a (i) and in the absence of [Na^+]i FIG. 2a (ii). Voltage steps (−70 mV to +70 mV) were applied in 10 mV increments from a holding potential of −70 mV. The calculated potassium equilibrium potential was −78 mV in these experiments. FIG. 2a (iii) The current-voltage relationship of the mean current obtained from 7 macropatches with a holding potential of −80 mV, and voltage steps from −80 to +80 mV in 10 mV increments FIG. 2a (iv) Plot of normalized IKNa obtained upon perfusion of inside-out patches with different Na^+ concentrations as indicated.
FIG. 2c depicts a current trace of an uninjected oocyte. […] For the macropatch experiments the pipette solution contained (in mM) 145 Na^+-gluconate, 5 KCI, 5 Ca^2+-gluconate, 3 Mg^2+-gluconate, 11 dextrose, 5 HEPES, pH 7.4 with NaOH. The bath solution contained (in mM): 110 KCI, 50 NaCI and 5 HEPES, pH 7.3 with KOH. NaCI was replaced by choline-Cl for the dose-response curve. In single channel experiments, the pipette solution contained (in mM) 80 K^+-gluconate, […], 5 HEPES, 2 MgCI2, pH 7.2 with KOH. The bath solution contained (in mM) 80 KCI, 80 NaCI or 80 cholineCl, 5 HEPES, 5 EGTA, pH 7.2 with KOH.
FIG. 5a (iii) depicts the current-voltage relationship of the mean current between 700-800 ms. The pipette solution contained (in mM) 80 K^+-gluconate, 80 Na^+-gluconate, 5 HEPES, 2 MgCI2, pH 7.2 with KOH. The bath solution contained (in mM) 80 KCI or 80 K^+-gluconate, 20 NaCI and 60 choline-Cl or 20 Na^+-gluconate and 120 dextrose, 5 HEPES, 5 EGTA, pH 7.2 with KOH. (b) (i) Dose response relationship for [Na+]i at 160 mM [CI]i or 10 mM [CI]i,. (ii) Dose response relationship for [CI]i at 80 mM [Na^+]i or 20 mM [Na^+]i. Currents for the dose response curves were measured and averaged over a 1 second interval at −60 mV and each patch was normalized to the current elicited in 80 mM [Na^+]i, and 160 mM [CI]i. Each experiment was completed within 120 seconds to minimize rundown and was perfused in order of decreasing [Na^+]i or [CI]i.
The single electrode patch clamp system was first used to analyze inside-out patches, and to investigate the properties of rSlo2 in the Xencpus oocyte expression system by transcribing cRNA and injecting it into oocytes.
To obtain efficient expression of rhSlo2.2 in Xencpus oocytes, the original rhSlo2.2 construct was cloned into pOX, a special vector optimized for oocyte expression. Capped cRNA was synthesized using the T3 mMessage mMachine kit (Ambion). rhSlo2.2 was linearized using NotI. Reactions were resuspended in nuclease-free water to a final concentration of 1.5 μg/μl. Oocytes were harvested from adult female Xenopus iaevis as described. Defolliculated oocytes were injected with approximately 75 ng of cRNA using a Drummond Nanojector. Injected oocytes were incubated at 19° C. in ND96 medium (in mM): 96 NaCl, 2 KCI, 1.8 CaCl2, 1 MgCl2, 5 HEPES, pH 7.5 with NaOH. Oocytes were analyzed 2-3 days after injection for single channel analysis or 3-6 days after injection for macroscopic current analysis.
Prior to recording, the vitelline membranes were mechanically removed. The contents of solutions used are described in the figure legends. […] Data were analyzed using pClamp 8.2 (Axon Instruments) and Sigmaplot 5 (Jandel Scientific) or Origin 5.0 (Microcal).

## [Ca+2] [Ca^2+i]
About 100 μM Ca^2+i, in the absence of Na^+i (data not shown)
  single channel activity: inhibited
Presence of about 80 μM ~200 μM Ca^2+i (data not shown)
  channel activity: no effect

## Cl [Cl^−]
55 mM Cl^−, 20 mM sodium ions, estimated from dose response plot
  current as fraction of I max: approximately 0.18 of I max
Seen only when Na^+i is also present
  activation of rSlo2 by Cl^−i: activated

## [Na+] [Na^+]
Sodium concentration at cytoplasmic side increased from 10 to 50 mM, inside-out patch
  increase of amplitude of macroscopic current in patches: more than ten times

Source: patent US20040241720A1, “Sodium activated potassium ion channel for therapeutic drug screening” (priority 2003, published 2004)
